The test system of data set [1] is pro-inflammatory cytokines I1-1β, I1-6, TNF-α. Put plainly: Ileal cytokine concentration, pro-inflammatory. Format: in vivo, pig. Further details: key: +++ indicate P < 0.01; ++ indicates P < 0.05; + indicates positive trends; = denotes no significant P value; − denotes negative trends. Particulars: compared to standard PN (s-PN). The source says: (§1) Neonatal Yorkshire/Landrace cross bred piglets (n=72; six at a time from the same litter, repeating 12 times) were obtained from Oak Hill Genetics (Ewing, Ill.) after 48-hour sow reared for colostrum consumption and iron supplementation.
(§2) The influence of the respective supplements on inflammation was investigated by determining Il-6, Il-1beta, TNF-alpha and Il-10 serum levels in the intervention groups compared to EN and PN according to Milo et al., Effects of Short-Chain Fatty Acid-Supplemented Total Parenteral Nutrition on Intestinal Pro-Inflammatory Cytokine Abundance. Digestive Diseases and Sciences 2002; 47:2049-2055. Jejunal and ileal samples were homogenized in double-distilled water, and the Bradford protein assay (Biorad, Hercules, Calif., USA) was performed on homogenate and plasma samples. Protein (30 μg) from each sample was denatured by boiling, and proteins were separated by size using 12.5% sodium dodecyl sulfate polyacrylamide gel electrophoresis. Separated proteins were transferred to polyvinylidene difluoride membranes (Biorad) using a semidry transfer apparatus (Biorad). Western blot analysis for TNF-alpha, IL-1beta, Il-10 and IL-6 was performed using porcine-specific polyclonal antibodies (Endogen, Woburn, Mass., USA). A mouse anti-pig monoclonal TNF-alpha antibody was used to detect TNF-alpha ([…]). Rabbit anti-pig polyclonal antibodies specific for IL-1beta and IL-6 were used to detect IL-1beta (17,500 kDa), Il-10 (18,600 kDa) and IL-6 (26,000 kDa). Membranes were developed using the Opti-4CN kit (Biorad) and photographed using the FOTO/Analyst Image Analysis System (Fotodyne, Inc., Hartland, Wis., USA). Densitometry of TNF-alpha, IL-1beta, IL-6, and Il-10 was performed using Collage Image Analysis Software 4.0 (Fotodyne, Inc.). Results are shown in FIG. 15 (Il-6), FIG. 16 (Illbeta), FIG. 17 (TNF-alpha) and FIG. 18 (Il-10).

Data set [2] concerns anti-inflammatory cytokines I1-10. Put plainly: Jejunal cytokine concentration, anti-inflammatory. Further details: key: +++ indicate P < 0.01; ++ indicates P < 0.05; + indicates positive trends; = denotes no significant P value; − denotes negative trends. The note with it: compared to standard PN (s-PN). The class given is in vivo, pig.
Source text: as §1, §2

Data set [3] deals with pro-inflammatory cytokines I1-1β, I1-6, TNF-α. Put plainly: Jejunal cytokine concentration, pro-inflammatory. The class given is in vivo, pig. The note with it: compared to standard PN (s-PN).
Source text: as §1, §2

The next data set deals with Il-1beta. Put plainly: Serum cytokine quantification, Il-1beta. The class given is in vivo, pig. The note with it: 10 mmol/L TPN (Group C).
Source text: as §1
as §2, with “Rabbit anti-pig polyclonal antibodies specific for IL-1beta and IL-6 were used to detect IL-1beta (17,500 kDa), Il-10 (18,600 kDa) and IL-6 (26,000 kDa). Membranes were developed using the Opti-4CN kit (Biorad) and photographed using the FOTO/Analyst Image Analysis System (Fotodyne, Inc., Hartland, Wis., USA). Densitometry of TNF-alpha, IL-1beta, IL-6, and Il-10 was performed using Collage Image Analysis Software 4.0 (Fotodyne, Inc.). Results are shown in FIG. 15 (Il-6), FIG. 16 (Illbeta), FIG. 17 (TNF-alpha) and FIG. 18 (Il-10).” left out

Data set [4] has as its system metastatic colorectal cancer patients. The note with it: aqueous solution, pH 7.7, phase I clinical trial; cited from earlier work.
The next data set deals with TNF-alpha. Put plainly: Serum cytokine quantification, TNF-alpha. The note with it: 10 mmol/L TPN (Group C). Format: in vivo, pig.
Source text: as §1
as §2, with “Rabbit anti-pig polyclonal antibodies specific for IL-1beta and IL-6 were used to detect IL-1beta (17,500 kDa), Il-10 (18,600 kDa) and IL-6 (26,000 kDa). Membranes were developed using the Opti-4CN kit (Biorad) and photographed using the FOTO/Analyst Image Analysis System (Fotodyne, Inc., Hartland, Wis., USA). Densitometry of TNF-alpha, IL-1beta, IL-6, and Il-10 was performed using Collage Image Analysis Software 4.0 (Fotodyne, Inc.). Results are shown in FIG. 15 (Il-6), FIG. 16 (Illbeta), FIG. 17 (TNF-alpha) and FIG. 18 (Il-10).” left out

The next data set relates to Il-6. Put plainly: Serum cytokine quantification, Il-6. The class given is in vivo, pig. Particulars: 10 mmol/L TPN (Group C).
Source text: as §1
as §2, with “Rabbit anti-pig polyclonal antibodies specific for IL-1beta and IL-6 were used to detect IL-1beta (17,500 kDa), Il-10 (18,600 kDa) and IL-6 (26,000 kDa). Membranes were developed using the Opti-4CN kit (Biorad) and photographed using the FOTO/Analyst Image Analysis System (Fotodyne, Inc., Hartland, Wis., USA). Densitometry of TNF-alpha, IL-1beta, IL-6, and Il-10 was performed using Collage Image Analysis Software 4.0 (Fotodyne, Inc.). Results are shown in FIG. 15 (Il-6), FIG. 16 (Illbeta), FIG. 17 (TNF-alpha) and FIG. 18 (Il-10).” left out

For data set [5] the following is noted: cited from earlier work.

`CCCC(=O)OCC(COC(=O)CCC)OC(=O)CCC` [Tributyrin]: the “Ileal Cytokine Concentration (less pro-inflammatory cytokines I1-1β, I1-6, TNF-α)” value in data set [1] (10 mmol/L) is “=”; in data set [1] (30 mmol/L) it was “+”. Moreover, the “Jejunal Cytokine Concentration (more anti-inflammatory cytokines I1-8, I1-10)” value was “=” in data set [2] (10 mmol/L) and “+” in data set [2] (30 mmol/L). Further, the “Jejunal Cytokine Concentration (less pro-inflammatory cytokines I1-1β, I1-6, TNF-α)” value in data set [3] (10 mmol/L) and in data set [3] (30 mmol/L) was “++ (++ indicates P < 0.05)” each time.
Regarding “L-arginine, butanoate (3:4) [Arginine butyrate]”, the “serum levels of Il1-beta (FIG. 16)” value in the data set with Il-1beta is on record as “significantly lower than in the standard PN group”. Further, the tolerated dose in data set [4] is recorded as 3 g/kg/day. The “Ileal Cytokine Concentration (less pro-inflammatory cytokines I1-1β, I1-6, TNF-α)” value in data set [1] (10 mmol/L) is reported as “++ (++ indicates P < 0.05)”. Besides, the “serum levels of TNF-alpha (FIG. 17)” value in the data set with TNF-alpha is “lower than in the other Study (or intervention) Groups”. In data set [2] (10 mmol/L), the “Jejunal Cytokine Concentration (more anti-inflammatory cytokines I1-8, I1-10)” value is given as “++ (++ indicates P < 0.05)”. Further, the “serum levels of Il-6 (FIG. 15)” value with Il-6 is “significantly lower than in the standard PN group”. In data set [5] (human, in vivo), the clearance rate was 93.6 ± 31.9 mL/min/kg. Moreover, in data set [5] (infusion rate of 2000 mg/kg/day, patients with hemoglobinopathy), the steady state concentration was 15.7 ± 4.8 mg/L. For the same compound, the “Jejunal Cytokine Concentration (less pro-inflammatory cytokines I1-1β, I1-6, TNF-α)” value in data set [3] (10 mmol/L) was “+++ (+++ indicate P < 0.01)”.

The record behind these values is US20220160669A1, “PARENTERAL NUTRITION FORMULATION” (BAXTER INTERNATIONAL INC., priority 2020, published 2022).
